Data as given in ChEMBL document CHEMBL1201862, “PubChem BioAssay data set” (2004).
Where a name gives a salt, the structure may show the parent alone. Activity calls are given as the source filed them.

Assays:
[1] = target: T1, Corticotropin-releasing factor receptor 2/Corticotropin-releasing factor-binding protein (Homo sapiens, UniProt P24387+Q13324); assay: Dose Response confirmation of uHTS hits for small molecule antagonists of the CRF-binding protein and CRF-R2 receptor complex.; assay type: functional; details: read-out: IC50_Mean
T1 sequence (Q13324 whole entry): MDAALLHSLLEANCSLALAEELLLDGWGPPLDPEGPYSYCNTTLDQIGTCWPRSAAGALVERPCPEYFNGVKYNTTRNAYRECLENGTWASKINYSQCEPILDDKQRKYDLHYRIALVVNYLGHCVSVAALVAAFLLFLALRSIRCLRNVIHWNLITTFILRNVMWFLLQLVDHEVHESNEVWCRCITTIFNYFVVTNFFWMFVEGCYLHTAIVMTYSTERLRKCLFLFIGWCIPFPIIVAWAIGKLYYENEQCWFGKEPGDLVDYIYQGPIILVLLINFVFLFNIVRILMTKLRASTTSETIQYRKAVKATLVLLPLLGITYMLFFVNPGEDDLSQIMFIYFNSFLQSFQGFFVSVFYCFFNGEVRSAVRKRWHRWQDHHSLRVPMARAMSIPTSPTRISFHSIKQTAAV
T1 sequence (P24387 whole entry): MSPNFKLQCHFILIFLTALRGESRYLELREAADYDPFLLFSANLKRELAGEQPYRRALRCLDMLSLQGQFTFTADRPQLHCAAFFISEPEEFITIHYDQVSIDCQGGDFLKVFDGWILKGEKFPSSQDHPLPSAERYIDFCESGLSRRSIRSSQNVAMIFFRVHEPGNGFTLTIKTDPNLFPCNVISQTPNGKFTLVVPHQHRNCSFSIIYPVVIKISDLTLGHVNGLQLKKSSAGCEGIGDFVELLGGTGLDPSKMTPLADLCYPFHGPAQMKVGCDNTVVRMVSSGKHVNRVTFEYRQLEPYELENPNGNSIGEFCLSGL

[2] = target: T1, Corticotropin-releasing factor receptor 2/Corticotropin-releasing factor-binding protein; assay: activators of CRF receptor 2 with binding protein – uHTS hits, confirmation (AID 602473); assay type: functional; details: read-out: EC50_Mean
[3] = target: T2, Replicative DNA helicase DnaB (Mycobacterium tuberculosis, UniProt P9WMR3); assay: DnaB intein splicing inhibitors, dose response, biochemical, cell-free fluorescence (AID 449749); assay type: functional
T2 sequence (P9WMR3 whole entry): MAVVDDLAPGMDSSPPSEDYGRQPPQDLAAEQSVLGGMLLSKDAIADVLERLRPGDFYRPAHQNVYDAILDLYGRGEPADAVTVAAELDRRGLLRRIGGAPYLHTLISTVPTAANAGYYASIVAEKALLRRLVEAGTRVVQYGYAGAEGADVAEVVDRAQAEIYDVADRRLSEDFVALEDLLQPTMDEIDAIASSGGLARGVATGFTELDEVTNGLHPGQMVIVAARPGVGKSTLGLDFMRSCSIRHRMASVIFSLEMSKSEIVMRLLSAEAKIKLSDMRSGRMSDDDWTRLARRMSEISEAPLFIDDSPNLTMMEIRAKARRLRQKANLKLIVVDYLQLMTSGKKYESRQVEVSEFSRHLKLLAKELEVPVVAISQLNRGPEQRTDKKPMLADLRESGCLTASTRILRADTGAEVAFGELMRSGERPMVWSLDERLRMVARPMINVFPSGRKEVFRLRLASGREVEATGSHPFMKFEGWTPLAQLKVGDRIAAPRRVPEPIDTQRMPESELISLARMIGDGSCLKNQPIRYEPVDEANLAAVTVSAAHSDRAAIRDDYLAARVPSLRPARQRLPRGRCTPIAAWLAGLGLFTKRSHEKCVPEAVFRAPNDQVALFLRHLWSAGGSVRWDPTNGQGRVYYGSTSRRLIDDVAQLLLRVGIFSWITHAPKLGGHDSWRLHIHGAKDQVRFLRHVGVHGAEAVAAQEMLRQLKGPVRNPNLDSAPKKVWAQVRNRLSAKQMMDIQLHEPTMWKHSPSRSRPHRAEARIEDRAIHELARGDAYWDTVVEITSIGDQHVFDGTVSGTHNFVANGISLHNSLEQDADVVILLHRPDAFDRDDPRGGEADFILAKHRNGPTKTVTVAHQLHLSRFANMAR

[4] = target: T3, Heat shock factor protein 1 (Mus musculus, UniProt P38532); assay: enhancement of HSF1-driven luciferase signal – cell-based, NIH3T3, luminescence, dose retest, confirmation (AID 435004); assay type: functional;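 note: stress induced by proteasome inhibitor MG132 added 30 min after compound; luciferase reporter driven by HSF1 response element in NIH3T3 cells; actives raise luminescence as potentiators of the MG132 stress response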
T3 sequence (P38532 whole entry): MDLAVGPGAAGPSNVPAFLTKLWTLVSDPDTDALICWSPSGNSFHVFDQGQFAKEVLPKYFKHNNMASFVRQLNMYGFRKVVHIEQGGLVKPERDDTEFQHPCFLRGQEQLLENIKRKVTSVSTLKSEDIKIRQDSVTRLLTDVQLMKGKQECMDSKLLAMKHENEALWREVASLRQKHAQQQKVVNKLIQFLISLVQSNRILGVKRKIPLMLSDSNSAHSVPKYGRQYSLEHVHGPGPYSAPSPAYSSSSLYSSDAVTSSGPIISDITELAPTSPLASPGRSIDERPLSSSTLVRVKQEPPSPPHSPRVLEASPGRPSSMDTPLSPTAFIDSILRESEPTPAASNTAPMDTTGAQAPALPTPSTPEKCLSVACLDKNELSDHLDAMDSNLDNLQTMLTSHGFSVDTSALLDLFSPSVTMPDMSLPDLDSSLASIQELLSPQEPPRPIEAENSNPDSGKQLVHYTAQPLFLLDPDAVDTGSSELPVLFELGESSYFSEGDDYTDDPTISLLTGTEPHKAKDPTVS

Protein RecA = target: T4, Protein RecA (Mycobacterium tuberculosis, UniProt P9WHJ3); assay: Fluorescence Cell-Free Homogeneous Dose Retest to Identify Inhibitors of RecA-Intein Splicing Activity. [Related pubchem assays (depositor defined):AID2097, AID2223, AID489010, AID492950]; assay type: functional
T4 sequence (P9WHJ3 whole entry): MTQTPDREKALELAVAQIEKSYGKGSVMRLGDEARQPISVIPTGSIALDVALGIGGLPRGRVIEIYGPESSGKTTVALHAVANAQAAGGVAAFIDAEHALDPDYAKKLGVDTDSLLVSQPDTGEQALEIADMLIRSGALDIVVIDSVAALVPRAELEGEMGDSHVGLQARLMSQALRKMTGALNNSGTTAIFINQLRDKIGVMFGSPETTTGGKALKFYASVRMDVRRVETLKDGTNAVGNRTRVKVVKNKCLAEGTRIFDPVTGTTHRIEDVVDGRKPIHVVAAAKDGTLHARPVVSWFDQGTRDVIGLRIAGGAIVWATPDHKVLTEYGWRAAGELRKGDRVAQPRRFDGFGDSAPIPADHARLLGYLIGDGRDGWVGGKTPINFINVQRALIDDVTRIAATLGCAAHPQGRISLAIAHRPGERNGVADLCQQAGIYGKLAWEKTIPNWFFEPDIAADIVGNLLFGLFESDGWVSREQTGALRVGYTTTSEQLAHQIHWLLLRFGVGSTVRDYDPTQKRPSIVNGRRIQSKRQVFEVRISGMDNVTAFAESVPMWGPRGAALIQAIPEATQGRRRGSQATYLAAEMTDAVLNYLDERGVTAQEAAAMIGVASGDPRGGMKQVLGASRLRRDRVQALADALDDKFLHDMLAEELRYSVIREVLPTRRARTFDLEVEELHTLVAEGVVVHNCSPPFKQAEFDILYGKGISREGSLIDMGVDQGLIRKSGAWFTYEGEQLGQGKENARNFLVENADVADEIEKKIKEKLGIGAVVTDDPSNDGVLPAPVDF

[5] = target: Induced myeloid leukemia cell differentiation protein Mcl-1 (Homo sapiens, UniProt Q07820); assay type: functional
Chain of Induced myeloid leukemia cell differentiation protein Mcl-1 (Q07820 whole entry): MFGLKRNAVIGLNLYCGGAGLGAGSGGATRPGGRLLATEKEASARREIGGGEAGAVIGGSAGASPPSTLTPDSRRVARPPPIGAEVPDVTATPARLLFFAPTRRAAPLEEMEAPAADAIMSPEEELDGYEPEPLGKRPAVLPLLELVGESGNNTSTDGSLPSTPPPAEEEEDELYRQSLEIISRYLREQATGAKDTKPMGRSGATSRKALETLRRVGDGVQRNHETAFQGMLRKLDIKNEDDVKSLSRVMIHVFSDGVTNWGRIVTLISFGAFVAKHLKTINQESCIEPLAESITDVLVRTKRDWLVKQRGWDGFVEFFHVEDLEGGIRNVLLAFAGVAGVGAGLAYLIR

[6] = microbe, parasite or virus in culture; assay type: functional; details: Mycobacterium tuberculosis
[7] = NIH-3T3 fibroblast cytotoxicity, dose response, cytotoxicity control, cell-based, fluorescence, Alamar Blue, secondary assay (AID 2327); assay type: functional;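 note: NIH-3T3 mouse fibroblasts cultured with fluconazole at 8 µg/mL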
[8] = fluconazole-exposed Candida albicans growth modulators – fluorescence, retest, confirmation (AID 2467); assay type: functional, cell-based
[9] = NIH3T3 cell viability loss – ATP luminescence, mouse fibroblasts, counter-screen, dose response (AID 2010); assay type: functional, cell-based;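 note: cells exposed to compound for about 90 hours before reading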
[10] = Trypanosoma cruzi growth suppression in host cells – NIH3T3 host cells, beta-gal luminescence, confirmation (AID 2044); assay type: functional, cell-based;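 note: intracellular parasites grown in NIH/3T3 mouse fibroblasts as host cells; luminescent beta-galactosidase reporter signal from transgenic T. cruzi replicating inside host cells; inhibitors lower the luminescence signal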
Paired box protein Pax-8 = Paired box protein Pax-8 (Homo sapiens, UniProt Q06710); assay: PAX8 transcriptional activity inhibition in RMG-I – RMG-I cells, luciferase, cherry-pick, dose response (AID 687027); assay type: functional, cell-based;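 note: luciferase reporter driven by Pax8 target thyroperoxidase promoter measured by SteadyGlo luminescence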
Chain of Paired box protein Pax-8 (Q06710 whole entry): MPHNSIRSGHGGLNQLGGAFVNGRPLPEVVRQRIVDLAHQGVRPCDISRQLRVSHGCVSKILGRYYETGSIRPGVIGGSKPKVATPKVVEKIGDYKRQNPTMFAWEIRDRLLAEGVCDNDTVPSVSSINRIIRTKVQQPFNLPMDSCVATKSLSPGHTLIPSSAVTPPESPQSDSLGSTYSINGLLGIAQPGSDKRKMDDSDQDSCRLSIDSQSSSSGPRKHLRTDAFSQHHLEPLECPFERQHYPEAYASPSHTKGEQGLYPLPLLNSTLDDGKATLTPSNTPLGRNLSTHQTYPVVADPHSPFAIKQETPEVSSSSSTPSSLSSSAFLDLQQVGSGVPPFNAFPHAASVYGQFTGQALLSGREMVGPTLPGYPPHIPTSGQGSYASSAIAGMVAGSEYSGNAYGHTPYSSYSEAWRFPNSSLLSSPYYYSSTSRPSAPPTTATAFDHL

[11] = P. falciparum Dd2 growth inhibitors, dose response, SYBR Green, cherry-picked samples (AID 1159567); assay type: functional, cell-based
INS1 = assay: INS-1E survival protection against cytokine death – cell-based, luminescence, retest, dose response (AID 449756); assay type: functional; details: Rattus norvegicus;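 note: cell death triggered by IL-1 beta plus TNF-alpha plus IFN-gamma mixture; protective hits raise ATP signal compared with cytokine alone wells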

C=C(C)C(=O)Oc1ccc(N2C(=O)[C@@H]3C4C=CC(C4)[C@@H]3C2=O)cc1
IC50 [1]: > 47.1 µM (inactive)
EC50 [2]: > 53 µM (inactive)

COc1ccc(N2C(=O)C(Cl)=C(Oc3cccc(OC)c3)C2=O)cc1
AC50 [3]: 18.9 µM (active)
EC50 [4]: 1.84 µM (active)
EC50 (Protein RecA): 10.7 µM (active)

CCN(c1ccc(NC(=O)COC(=O)c2cc3ccccc3oc2=O)cc1)C(C)C
IC50 [5]: 25.3 µM (not active)

O=C(CCC(=O)OCC(F)(F)C(F)F)NCc1ccccc1
IC50 [1]: > 47.1 µM (inactive)
EC50 [2]: > 53 µM (inactive)

CC1=C(C(=O)OC(C)C)C(c2cccs2)N2C(=O)C(C)SC2=N1 (stereo not drawn)
IC50 [1]: > 47.1 µM (inactive)
EC50 [2]: > 53 µM (inactive)

COc1ccc(C(CC(=O)c2ccc(C)cc2)C(C#N)C#N)cc1OC (stereo not drawn)
AC50 [3]: 11.4 µM (active)
EC50 [4]: 5.54 µM (active)
EC50 (Protein RecA): 4.79 µM (active)

Cc1nn(Cc2ccccc2)c(C)c1NC(=O)c1cc2nc(-c3ccco3)cc(C(F)(F)F)n2n1
CC50 [6]: > 40 µM (active)

CC(C)c1cc(N2CCC(=O)NC2=O)cc(C(=O)O)c1O
IC50 [1]: > 47.1 µM (inactive)
EC50 [2]: > 53 µM (inactive)

COc1ccc(N(CC(=O)Nc2cc(Cl)ccc2C)S(=O)(=O)c2c(C)n[nH]c2C)cc1
CC50 [6]: > 40 µM (active)

C/C(Cl)=C\COc1cc(C)nc2c(Br)cccc12
CC50 [6]: > 40 µM (active)

CC1CCCCN1C(C(=O)O)c1ccccc1 (stereo not drawn)
IC50 [1]: > 47.1 µM (inactive)
EC50 [2]: > 53 µM (inactive)

CCOc1ccc(N2CC(C(=O)NCc3nnnn3-c3ccc(C)c(C)c3)CC2=O)cc1 (stereo not drawn)
IC50 [1]: > 47.1 µM (inactive)
EC50 [2]: > 53 µM (inactive)

CCC(C)NS(=O)(=O)c1ccc(OCC(=O)NCc2ccccn2)cc1 (stereo not drawn)
IC50 [1]: > 47.1 µM (inactive)
EC50 [2]: > 53 µM (inactive)

CC1CCN(c2ccc(NC(=O)Cc3ccccc3)cc2)CC1
IC50 [5]: 5.35 µM (not active)

Cc1cc(NC2CCCCC2)nc(-c2ccccc2O)n1
CC50 [6]: > 40 µM (active)

Nc1ccc2c(c1Cl)C(=O)c1ccc(N)c(Cl)c1C2=O
IC50 [5]: 2.76 µM (active)

O=C(CSc1nnc(-c2ccco2)n1Cc1ccccc1)OC1CCCCC1
EC50 [4]: 35.8 µM (active)
EC50 [7]: > 150 µM (inactive)
EC50 [8]: > 38 µM (not active)

COC(=O)C(CC(=O)c1cccc(OC)c1)c1ccc(F)cc1 (stereo not drawn)
IC50 [1]: > 47.1 µM (inactive)
EC50 [2]: > 53 µM (inactive)

Cc1ccc(NS(=O)(=O)c2ccc(C(=O)Nc3nncs3)cc2)cc1
IC50 [1]: > 47.1 µM (inactive)
EC50 [2]: > 53 µM (inactive)

O=C1N=C(N/N=C/c2ccccn2)SC1Cc1cccc(SC(F)F)c1 (stereo not drawn)
EC50 [9]: 4.95 µM (active)
CC50 [6]: 14.7 µM (active)
EC50 [10]: 0.528 µM (active)

COc1ccccc1CNC(=O)CCc1nnc2ccc(NCCCN3CCCC3=O)nn12
IC50 [1]: > 47.1 µM (inactive)
EC50 [2]: > 53 µM (inactive)

C[C@@H]1CN([C@H](C)CO)C(=O)Cc2cc(NC(=O)Cc3ccccc3)ccc2O[C@@H]1CN(C)Cc1ccc(C(F)(F)F)cc1
AC50 (Paired box protein Pax-8): 11.8 µM (active)

C[C@@H]1CCCCO[C@@H](CN(C)Cc2ccc(C(F)(F)F)cc2)[C@H](C)CN([C@H](C)CO)C(=O)c2cc(NS(=O)(=O)c3cccs3)ccc2O1
AC50 (Paired box protein Pax-8): 9.08 µM (active)

CC(=O)O[C@H]1C[C@H](O[C@H]2[C@@H](O)C[C@H](O[C@H]3[C@@H](O)C[C@H](O[C@H]4CC[C@@]5(C)[C@H](CC[C@@H]6[C@@H]5CC[C@]5(C)[C@@H](C7=CC(=O)OC7)CC[C@]65O)C4)O[C@@H]3C)O[C@@H]2C)O[C@H](C)[C@H]1O[C@@H]1O[C@H](CO)[C@@H](O)[C@H](O)[C@H]1O
AC50 (Paired box protein Pax-8): 0.345 µM (active)

O=C(Cc1ccccn1)N1CCCCN2[C@@H](CO)[C@@H](c3ccc(C#Cc4ccccc4)cc3)[C@@H]2C1
AC50 [11]: 4.71 µM (active)

COc1ccc2c3c(n(C)c2c1)[C@@H](CO)N(C(=O)c1ccc(F)cc1)CC31CN(CC2CCOCC2)C1
AC50 [11]: 12.1 µM (active)

CO[C@@H]1CN(C)C(=O)c2cc(NC(=O)Cc3ccccc3)ccc2OC[C@H](C)N(C(=O)c2ccccc2F)C[C@@H]1C
AC50 [11]: 7.66 µM (active)

COc1ccc(C#Cc2ccc3c(c2)[C@H]2[C@H](CCN2C(=O)c2ccccn2)[C@@H](CO)N3)cc1
AC50 [11]: 3.75 µM (active)

CCCCC(CC)CN=C(N)N=C(N)NCCCCCCNC(N)=NC(N)=NCC(CC)CCCC (stereo not drawn) [ALEXIDINE HYDROCHLORIDE]
CC50 [6]: 10.5 µM (active)
AC50 (INS1): 2.26 µM (active)
